Data reported in the supplement of paper PMC6045584.
± gives the standard deviation of the averaged measurements.

Key:
[1] = compound: CC(=O)NCC(=O)N1[C@@H]2CC[C@H]1c1ccc(Nc3ncc(C(F)(F)F)c(NC4CCC4)n3)cc12; test: surviving fraction relative to DMSO-only wells; higher = less growth inhibition; conditions: exposure time: 5 days
Outline: (§1)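 Lines were retained only if, across three screens, replicate Pearson r was >0.7 and median Z' was >0.3. Viability was measured as CellTiter-Glo luminescence and reported as surviving fraction relative to the median of DMSO-only wells. Readings followed 10 minutes at room temperature, after log-phase tumour cells seeded at 250–500 per well in 384-well plates had been exposed, from 24 hours after seeding, continuously for five days to inhibitors at 0.5, 1, 5, 10, 50, 100, 500 and 1000 nM.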

PACLITAXEL [2] = compound: T1, CC(=O)O[C@H]1C(=O)[C@@]2(C)[C@H]([C@H](OC(=O)c3ccccc3)[C@]3(O)C[C@H](OC(=O)[C@H](O)[C@@H](NC(=O)c4ccccc4)c4ccccc4)C(C)=C1C3(C)C)[C@]1(OC(C)=O)CO[C@@H]1C[C@@H]2O [PACLITAXEL]; test: as above; conditions: exposure time: 5 days
Outline: as §1

[3] = compound: CC(=O)c1c(C)c2cnc(Nc3ccc(N4CCNCC4)cn3)nc2n(C2CCCC2)c1=O; test: as above; conditions: exposure time: 5 days
Outline: as §1

CAMPTOTHECIN [4] = compound: T2, CC[C@@]1(O)C(=O)OCc2c1cc1n(c2=O)Cc2cc3ccccc3nc2-1 [CAMPTOTHECIN]; test: as above; conditions: exposure time: 5 days
Outline: as §1

YM155 [5] = compound: T3, COCC[n+]1c2c(n(Cc3cnccn3)c1C)C(=O)c1ccccc1C2=O [YM155]; test: as above; conditions: exposure time: 5 days
Outline: as §1

GEFITINIB [6] = compound: T4, COc1cc2ncnc(Nc3ccc(F)c(Cl)c3)c2cc1OCCCN1CCOCC1 [GEFITINIB]; test: as above; conditions: exposure time: 5 days
Outline: as §1

OSI-906 [7] = compound: T5, C[C@]1(O)C[C@@H](c2nc(-c3ccc4ccc(-c5ccccc5)nc4c3)c3c(N)nccn32)C1 [OSI-906]; test: as above; conditions: exposure time: 5 days
Outline: as §1

CELECOXIB [8] = compound: T6, Cc1ccc(-c2cc(C(F)(F)F)nn2-c2ccc(S(N)(=O)=O)cc2)cc1 [CELECOXIB]; test: as above; conditions: exposure time: 5 days
Outline: as §1

CARBOPLATIN [9] = compound: T7, O=C(O)C1(C(=O)O)CCC1.[NH2-].[NH2-].[Pt+2] [CARBOPLATIN]; test: as above; conditions: exposure time: 5 days
Outline: as §1

[10] = compound: CC(=O)NCC(=O)N1[C@@H]2CC[C@H]1c1ccc(Nc3ncc(C(F)(F)F)c(NC4CCC4)n3)cc12; test: area under dose-response curve of surviving fraction (unscaled, Aref=0) (surviving fraction x log10(nM)); higher = more resistant; conditions: exposure time: 5 days; dose range 0.5-1000 nM
Outline: (§2)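 Tumour cell lines in 384-well plates were exposed to eight inhibitor concentrations, from 0.5 to 1000 nM, for five days, and viability was read by CellTiter-Glo luminescence in three screens per line. Signals were normalised to DMSO-only wells, and 3-parameter logistic regression in the drc R package fitted dose-response survival curves to the surviving fractions. Area under the curve is given as the unscaled activity area. That area is taken over log10 dose with Aref = 0.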

PACLITAXEL [11] = compound: T1, PACLITAXEL; test: as above; conditions: exposure time: 5 days; dose range 0.5-1000 nM
Outline: as §2

[12] = compound: CC(=O)c1c(C)c2cnc(Nc3ccc(N4CCNCC4)cn3)nc2n(C2CCCC2)c1=O; test: as above; conditions: exposure time: 5 days; dose range 0.5-1000 nM
Outline: as §2

CAMPTOTHECIN [13] = compound: T2, CAMPTOTHECIN; test: as above; conditions: exposure time: 5 days; dose range 0.5-1000 nM
Outline: as §2

YM155 [14] = compound: T3, YM155; test: as above; conditions: exposure time: 5 days; dose range 0.5-1000 nM
Outline: as §2

GEFITINIB [15] = compound: T4, GEFITINIB; test: as above; conditions: exposure time: 5 days; dose range 0.5-1000 nM
Outline: as §2

OSI-906 [16] = compound: T5, OSI-906; test: as above; conditions: exposure time: 5 days; dose range 0.5-1000 nM
Outline: as §2

CELECOXIB [17] = compound: T6, CELECOXIB; test: as above; conditions: exposure time: 5 days; dose range 0.5-1000 nM
Outline: as §2

CARBOPLATIN [18] = compound: T7, CARBOPLATIN; test: as above; conditions: exposure time: 5 days; dose range 0.5-1000 nM
Outline: as §2

For SG43 HEADNECK, which surviving fraction ([1]; 0.5 nM) is on record?
The surviving fraction was 1.01 ± 0.065.

What about the surviving fraction ([1]; 1 nM) of the same test system?
The surviving fraction was 1.18 ± 0.26.

What about the surviving fraction ([1]; 5 nM) of the same test system?
The surviving fraction was 0.8 ± 0.25.

What about the surviving fraction ([1]; 10 nM) of the same test system?
Its surviving fraction is 0.923 ± 0.17.

What about the surviving fraction ([1]; 50 nM) of the same test system?
The surviving fraction was 0.703 ± 0.22.

What about the surviving fraction ([1]; 100 nM) of the same test system?
The surviving fraction was 0.682 ± 0.093.

And the surviving fraction ([1]; 500 nM)?
The surviving fraction was 0.579 ± 0.039.

And the surviving fraction ([1]; 1000 nM)?
Its surviving fraction is 0.569 ± 0.069.

And the surviving fraction (PACLITAXEL [2]; 0.5 nM)?
The surviving fraction was 0.793 ± 0.2.

What about the surviving fraction (PACLITAXEL [2]; 1 nM) of the same test system?
The surviving fraction was 0.849 ± 0.078.

What about the surviving fraction (PACLITAXEL [2]; 5 nM) of the same test system?
Its surviving fraction is 0.588 ± 0.022.

What about the surviving fraction (PACLITAXEL [2]; 10 nM) of the same test system?
The surviving fraction was 0.619 ± 0.067.

What about the surviving fraction (PACLITAXEL [2]; 50 nM) of the same test system?
Its surviving fraction is 0.471 ± 0.0079.

What about the surviving fraction (PACLITAXEL [2]; 100 nM) of the same test system?
Its surviving fraction is 0.467 ± 0.091.

And the surviving fraction (PACLITAXEL [2]; 500 nM)?
The surviving fraction was 0.477 ± 0.07.

And the surviving fraction (PACLITAXEL [2]; 1000 nM)?
Its surviving fraction is 0.433 ± 0.038.

And the surviving fraction ([3]; 0.5 nM)?
The surviving fraction was 0.92 ± 0.039.

What about the surviving fraction ([3]; 1 nM) of the same test system?
Its surviving fraction is 1 ± 0.12.

What about the surviving fraction ([3]; 5 nM) of the same test system?
Its surviving fraction is 0.862 ± 0.16.

And the surviving fraction ([3]; 10 nM)?
Its surviving fraction is 0.855 ± 0.059.

What about the surviving fraction ([3]; 50 nM) of the same test system?
Its surviving fraction is 0.73 ± 0.11.

What about the surviving fraction ([3]; 100 nM) of the same test system?
The surviving fraction was 0.745 ± 0.12.

And the surviving fraction ([3]; 500 nM)?
The surviving fraction was 1.02 ± 0.12.

What about the surviving fraction ([3]; 1000 nM) of the same test system?
The surviving fraction was 0.766 ± 0.28.

What about the surviving fraction (CAMPTOTHECIN [4]; 0.5 nM) of the same test system?
Its surviving fraction is 1.16 ± 0.13.

What about the surviving fraction (CAMPTOTHECIN [4]; 1 nM) of the same test system?
The surviving fraction was 1.18 ± 0.2.

What about the surviving fraction (CAMPTOTHECIN [4]; 5 nM) of the same test system?
The surviving fraction was 1.01 ± 0.11.

And the surviving fraction (CAMPTOTHECIN [4]; 10 nM)?
Its surviving fraction is 0.854 ± 0.18.

And the surviving fraction (CAMPTOTHECIN [4]; 50 nM)?
Its surviving fraction is 0.624 ± 0.044.

And the surviving fraction (CAMPTOTHECIN [4]; 100 nM)?
The surviving fraction was 0.329 ± 0.04.

What about the surviving fraction (CAMPTOTHECIN [4]; 500 nM) of the same test system?
The surviving fraction was 0.256 ± 0.054.

And the surviving fraction (CAMPTOTHECIN [4]; 1000 nM)?
Its surviving fraction is 0.143 ± 0.037.

And the surviving fraction (YM155 [5]; 0.5 nM)?
Its surviving fraction is 1.18 ± 0.4.

And the surviving fraction (YM155 [5]; 1 nM)?
Its surviving fraction is 1.02 ± 0.032.

What about the surviving fraction (YM155 [5]; 5 nM) of the same test system?
The surviving fraction was 0.744 ± 0.088.

What about the surviving fraction (YM155 [5]; 10 nM) of the same test system?
Its surviving fraction is 0.81 ± 0.15.

What about the surviving fraction (YM155 [5]; 50 nM) of the same test system?
Its surviving fraction is 0.783 ± 0.052.

And the surviving fraction (YM155 [5]; 100 nM)?
Its surviving fraction is 0.705 ± 0.084.

What about the surviving fraction (YM155 [5]; 500 nM) of the same test system?
The surviving fraction was 0.159 ± 0.058.

And the surviving fraction (YM155 [5]; 1000 nM)?
Its surviving fraction is 0.0523 ± 0.0084.

What about the surviving fraction (GEFITINIB [6]; 0.5 nM) of the same test system?
The surviving fraction was 1.36 ± 0.4.

What about the surviving fraction (GEFITINIB [6]; 1 nM) of the same test system?
The surviving fraction was 1.21 ± 0.45.

And the surviving fraction (GEFITINIB [6]; 5 nM)?
The surviving fraction was 0.814 ± 0.26.

What about the surviving fraction (GEFITINIB [6]; 10 nM) of the same test system?
Its surviving fraction is 0.825 ± 0.2.

And the surviving fraction (GEFITINIB [6]; 50 nM)?
The surviving fraction was 0.649 ± 0.17.

And the surviving fraction (GEFITINIB [6]; 100 nM)?
Its surviving fraction is 0.406 ± 0.034.

And the surviving fraction (GEFITINIB [6]; 500 nM)?
Its surviving fraction is 0.264 ± 0.033.

And the surviving fraction (GEFITINIB [6]; 1000 nM)?
The surviving fraction was 0.21 ± 0.043.

And the surviving fraction (OSI-906 [7]; 0.5 nM)?
Its surviving fraction is 1.21 ± 0.074.

What about the surviving fraction (OSI-906 [7]; 1 nM) of the same test system?
The surviving fraction was 1.18 ± 0.13.

What about the surviving fraction (OSI-906 [7]; 5 nM) of the same test system?
Its surviving fraction is 0.829 ± 0.025.

What about the surviving fraction (OSI-906 [7]; 10 nM) of the same test system?
The surviving fraction was 0.987 ± 0.12.

And the surviving fraction (OSI-906 [7]; 50 nM)?
Its surviving fraction is 0.695 ± 0.051.

What about the surviving fraction (OSI-906 [7]; 100 nM) of the same test system?
Its surviving fraction is 0.665 ± 0.06.

What about the surviving fraction (OSI-906 [7]; 500 nM) of the same test system?
The surviving fraction was 0.697 ± 0.021.

And the surviving fraction (OSI-906 [7]; 1000 nM)?
Its surviving fraction is 0.614 ± 0.021.

And the surviving fraction (CELECOXIB [8]; 0.5 nM)?
The surviving fraction was 0.96 ± 0.3.

And the surviving fraction (CELECOXIB [8]; 1 nM)?
The surviving fraction was 1.22 ± 0.49.

What about the surviving fraction (CELECOXIB [8]; 5 nM) of the same test system?
Its surviving fraction is 0.942 ± 0.31.

What about the surviving fraction (CELECOXIB [8]; 10 nM) of the same test system?
The surviving fraction was 0.929 ± 0.28.

What about the surviving fraction (CELECOXIB [8]; 50 nM) of the same test system?
Its surviving fraction is 0.938 ± 0.21.

And the surviving fraction (CELECOXIB [8]; 100 nM)?
The surviving fraction was 1.14 ± 0.051.

And the surviving fraction (CELECOXIB [8]; 500 nM)?
Its surviving fraction is 1.04 ± 0.035.

What about the surviving fraction (CELECOXIB [8]; 1000 nM) of the same test system?
Its surviving fraction is 1.08 ± 0.08.

And the surviving fraction (CARBOPLATIN [9]; 0.5 nM)?
Its surviving fraction is 1.14 ± 0.14.

And the surviving fraction (CARBOPLATIN [9]; 1 nM)?
Its surviving fraction is 1.13 ± 0.3.

And the surviving fraction (CARBOPLATIN [9]; 5 nM)?
The surviving fraction was 0.915 ± 0.18.

What about the surviving fraction (CARBOPLATIN [9]; 10 nM) of the same test system?
Its surviving fraction is 1.15 ± 0.23.

What about the surviving fraction (CARBOPLATIN [9]; 50 nM) of the same test system?
Its surviving fraction is 0.826 ± 0.071.

What about the surviving fraction (CARBOPLATIN [9]; 100 nM) of the same test system?
The surviving fraction was 0.996 ± 0.19.

What about the surviving fraction (CARBOPLATIN [9]; 500 nM) of the same test system?
The surviving fraction was 0.994 ± 0.16.

And the surviving fraction (CARBOPLATIN [9]; 1000 nM)?
Its surviving fraction is 1.07 ± 0.14.

And the “area under dose-response curve” value [10]?
The value was 2.61.

And the “area under dose-response curve” value (PACLITAXEL [11])?
The value was 1.9.

And the “area under dose-response curve” value [12]?
Its value is 2.84.

And the “area under dose-response curve” value (CAMPTOTHECIN [13])?
Its value is 2.21.

And the “area under dose-response curve” value (YM155 [14])?
Its value is 2.35.

And the “area under dose-response curve” value (GEFITINIB [15])?
The value was 2.21.

What about the “area under dose-response curve” value (OSI-906 [16]) of the same test system?
The value was 2.7.

What about the “area under dose-response curve” value (CELECOXIB [17]) of the same test system?
Its value is 3.37.

What about the “area under dose-response curve” value (CARBOPLATIN [18]) of the same test system?
The value was 3.37.
